Test results: patent US11021445B2, “Carboxylic acid derivative as AT2R receptor antagonist” (SHANDONG DANHONG PHARMACEUTICAL CO., LTD., priority 2017, dated 2021)

target: T1, hAT2 (Homo sapiens, UniProt P50052); assay: hAT2 receptor binding assay (SPA, [125I]-Sar1-Ile8-Angiotensin II); conditions: membrane of HEK-293 cells overexpressing hAT2; 0.1 nM 125I ligand
T1 construct: expressed in transfected cells; host or cells: HEK-293
T1 sequence (P50052 1-363): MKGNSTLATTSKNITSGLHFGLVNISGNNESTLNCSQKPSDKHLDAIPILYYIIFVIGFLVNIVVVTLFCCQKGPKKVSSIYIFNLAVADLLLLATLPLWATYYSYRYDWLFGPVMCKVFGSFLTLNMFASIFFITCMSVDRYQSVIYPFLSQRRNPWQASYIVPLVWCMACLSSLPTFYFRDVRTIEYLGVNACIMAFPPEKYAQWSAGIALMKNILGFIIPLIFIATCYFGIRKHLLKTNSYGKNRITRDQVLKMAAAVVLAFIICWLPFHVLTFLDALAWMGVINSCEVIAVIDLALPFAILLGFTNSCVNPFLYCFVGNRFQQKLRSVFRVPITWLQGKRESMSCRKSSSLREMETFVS
Method: hAT2 Receptor Binding Assay
Protease inhibitor mixture, free of ethylenediaminetetraacetic acid-1 tablets (Roche #11873580001) (50 mL plus one piece)
Experimental Methods and Steps
The reference ligand PD123319 and the test compound were prepared into a 750 μM mother liquor by DMSO; each compound was prepared into a solution of 8 concentration gradients (up to a concentration of 750 μM, 3-fold dilution) and 10 μl of the solution was added to a master of a 384-well plate per well.
The SPA beads were prepared to a mother liquor of 25 mg/ml by the buffer;
The isotope [^125I]-Sar1-Ile8-Angiotensin II was prepared into a mother liquor of 50 μCi/ml by adding pure water.
The cell membrane overexpressing hAT2 in HEK-293 cells was prepared to 2.5 mg/ml by the buffer.
200 nl of compound was aspirated from the mother plate with ECHO to each well of the 384-well test plate. ZPE was added to an equal volume of DMSO. (The concentration of the test compound in the reaction was diluted by 250 times).
A 50 ml membrane solution containing 10 μg/μl of magnetic beads and 0.05 μg/μl of AT2 was prepared, placed on a shaker and uniformly mixed. (100 rpm, 30 min). The test plate finally contained an hAT2 membrane with 1.25 μg/well and magnetic beads with 250 μg/well.
A 3.2 ml membrane liquid mixture was added to the compound test plate by using a Multidrop Combi pipette, and 25 μl was added to each well.
A 0.2 nM solution was prepared with 50 μCi/ml of isotope [^125I]-Sar1-Ile8-Angiotensin II mother liquor by the buffer, and 0.2 nM of ^125I was added to the compound test plate with a Multidrop Combi pipette. A volume of 25 μl was added to each well. The final concentration of ^125I isotope is 0.1 nM.
The prepared test plate was placed on a shaker overnight at room temperature at 200 rpm.
The test plate was centrifuged with a centrifuge at 1200 rpm for 1 min.
The centrifuged test plate was read with Microbeta.

IC50 | Structure (SMILES)
66.4 nM | COc1ccc2c(c1OCc1ccccc1)CC(C(=O)O)N(C(=O)C(OC1CCOCC1)c1ccccc1)C2 (single isomer, unassigned) [Compound 1]
850 nM | COc1ccc2c(c1OCc1ccccc1)CC(C(=O)O)N(C(=O)C(OC1CCOCC1)c1ccccc1)C2 (single isomer, unassigned) [Compound 2]
47.6 nM | COc1ccc2c(c1OCc1ccccc1)C[C@@H](C(=O)O)N(C(=O)[C@@H](O[C@@H]1CCOC1)c1ccccc1)C2 (single isomer, unassigned) [Compound 9]
60.7 nM | COc1ccc2c(c1OCc1ccccc1)C[C@@H](C(=O)O)N(C(=O)[C@H](O[C@@H]1CCOC1)c1ccccc1)C2 (single isomer, unassigned) [Compound 10]
> 3000 nM | COc1ccc2c(c1OCc1ccccc1)C[C@@H](C(=O)O)N(C(=O)[C@@H](O[C@H]1CCOC1)c1ccccc1)C2 (single isomer, unassigned) [Compound 11]
> 3000 nM | COc1ccc2c(c1OCc1ccccc1)C[C@@H](C(=O)O)N(C(=O)[C@H](OC1CCOC1)c1ccccc1)C2 (single isomer, unassigned) [Compound 12]
22.7 nM | COc1ccc2c(c1OCc1ccccc1)C[C@@H](C(=O)O)N(C(=O)[C@@H](OC1CCC3CC31)c1ccccc1)C2 (single isomer, unassigned) [Compound 59]
2.5 nM | COc1ccc2c(c1OCc1ccccc1)C[C@@H](C(=O)O)N(C(=O)[C@@H](OC1CCC3CC31)c1ccccc1)C2 (single isomer, unassigned) [Compound 60]
72.7 nM | COc1ccc2c(c1OCc1ccccc1)C[C@@H](C(=O)O)N(C(=O)[C@H](OC1CCC3CC31)c1ccccc1)C2 (single isomer, unassigned) [Compound 61]
270 nM | COc1ccc2c(c1OCc1ccccc1)C[C@@H](C(=O)O)N(C(=O)[C@H](OC1CCC3CC31)c1ccccc1)C2 (single isomer, unassigned) [Compound 62]
197 nM | COCCO[C@H](C(=O)N1Cc2ccc(OC)c(OCc3ccccc3)c2C[C@H]1C(=O)O)c1ccccc1 [Compound 3]
836 nM | COCCO[C@@H](C(=O)N1Cc2ccc(OC)c(OCc3ccccc3)c2C[C@H]1C(=O)O)c1ccccc1 [Compound 4]
17.7 nM | CCCCO[C@H](C(=O)N1Cc2ccc(OC)c(OCc3ccccc3)c2C[C@H]1C(=O)O)c1ccccc1 [Compound 5]
383 nM | CCCCO[C@@H](C(=O)N1Cc2ccc(OC)c(OCc3ccccc3)c2C[C@H]1C(=O)O)c1ccccc1 [Compound 6]
35.2 nM | COc1ccc2c(c1OCc1ccccc1)C[C@@H](C(=O)O)N(C(=O)[C@@H](OCC(F)(F)F)c1ccccc1)C2 [Compound 7]
513 nM | COc1ccc2c(c1OCc1ccccc1)C[C@@H](C(=O)O)N(C(=O)[C@H](OCC(F)(F)F)c1ccccc1)C2 [Compound 8]
154 nM | COc1ccc2c(c1OCc1ccccc1)C[C@@H](C(=O)O)N(C(=O)[C@@H](OC1COC1)c1ccccc1)C2 [Compound 13]
> 3000 nM | COc1ccc2c(c1OCc1ccccc1)C[C@@H](C(=O)O)N(C(=O)[C@H](OC1COC1)c1ccccc1)C2 [Compound 14]
96.4 nM | COc1ccc2c(c1OCc1ccccc1)C[C@@H](C(=O)O)N(C(=O)[C@@H](Oc1c(F)cc(F)cc1F)c1ccccc1)C2 [Compound 15]
16.5 nM | COc1ccc2c(c1OCc1ccccc1)C[C@@H](C(=O)O)N(C(=O)[C@H](Oc1c(F)cc(F)cc1F)c1ccccc1)C2 [Compound 16]
143 nM | COc1ccc2c(c1OCc1ccccc1)C[C@@H](C(=O)O)N(C(=O)[C@@H](Oc1ccccc1F)c1ccccc1)C2 [Compound 17]
54.1 nM | COc1ccc2c(c1OCc1ccccc1)C[C@@H](C(=O)O)N(C(=O)[C@H](Oc1ccccc1F)c1ccccc1)C2 [Compound 18]
250 nM | COc1ccc2c(c1OCc1ccccc1)C[C@@H](C(=O)O)N(C(=O)[C@@H](Oc1ccccc1)c1ccccc1)C2 [Compound 19]
176 nM | COc1ccc2c(c1OCc1ccccc1)C[C@@H](C(=O)O)N(C(=O)[C@H](Oc1ccccc1)c1ccccc1)C2 [Compound 20]
195 nM | COc1ccc2c(c1OCc1ccccc1)C[C@@H](C(=O)O)N(C(=O)[C@@H](Oc1ccccn1)c1ccccc1)C2 [Compound 21]
1340 nM | COc1ccc2c(c1OCc1ccccc1)C[C@@H](C(=O)O)N(C(=O)[C@H](Oc1ccccn1)c1ccccc1)C2 [Compound 22]

IC50 | Structure (SMILES)
> 3000 nM | COc1ccc(O[C@H](C(=O)N2Cc3ccc(OC)c(OCc4ccccc4)c3C[C@H]2C(=O)O)c2ccccc2)cc1 [Compound 23]
192 nM | COc1ccc(O[C@@H](C(=O)N2Cc3ccc(OC)c(OCc4ccccc4)c3C[C@H]2C(=O)O)c2ccccc2)cc1 [Compound 24]
72.1 nM | COc1ccc2c(c1OCc1ccccc1)C[C@@H](C(=O)O)N(C(=O)[C@@H](Oc1cccs1)c1ccccc1)C2 [Compound 25]
95.1 nM | COc1ccc2c(c1OCc1ccccc1)C[C@@H](C(=O)O)N(C(=O)[C@H](Oc1cccs1)c1ccccc1)C2 [Compound 26]
245 nM | COc1ccc2c(c1OCc1ccccc1)C[C@@H](C(=O)O)N(C(=O)[C@@H](Oc1ccc(F)cc1F)c1ccccc1)C2 [Compound 27]
29.8 nM | COc1ccc2c(c1OCc1ccccc1)C[C@@H](C(=O)O)N(C(=O)[C@H](Oc1ccc(F)cc1F)c1ccccc1)C2 [Compound 28]
231 nM | COc1ccc2c(c1OCc1ccccc1)C[C@@H](C(=O)O)N(C(=O)[C@@H](Oc1ccc(C#N)cc1)c1ccccc1)C2 [Compound 29]
373 nM | COc1ccc2c(c1OCc1ccccc1)C[C@@H](C(=O)O)N(C(=O)[C@H](Oc1ccc(C#N)cc1)c1ccccc1)C2 [Compound 30]
59.6 nM | COc1ccc2c(c1OCc1ccccc1)C[C@@H](C(=O)O)N(C(=O)[C@@H](Oc1ccc(F)cc1)c1ccccc1)C2 [Compound 31]
78.3 nM | COc1ccc2c(c1OCc1ccccc1)C[C@@H](C(=O)O)N(C(=O)[C@H](Oc1ccc(F)cc1)c1ccccc1)C2 [Compound 32]
648 nM | COc1ccc2c(c1OCc1ccccc1)C[C@@H](C(=O)O)N(C(=O)[C@@H](Oc1ccc(Cl)cc1)c1ccccc1)C2 [Compound 33]
227 nM | COc1ccc2c(c1OCc1ccccc1)C[C@@H](C(=O)O)N(C(=O)[C@H](Oc1ccc(Cl)cc1)c1ccccc1)C2 [Compound 34]
1240 nM | COc1ccc2c(c1OCc1ccccc1)C[C@@H](C(=O)O)N(C(=O)[C@@H](Oc1ccc3ccccc3c1)c1ccccc1)C2 [Compound 35]
97.1 nM | COc1ccc2c(c1OCc1ccccc1)C[C@@H](C(=O)O)N(C(=O)[C@H](Oc1ccc3ccccc3c1)c1ccccc1)C2 [Compound 36]
691 nM | COc1ccc2c(c1OCc1ccccc1)C[C@@H](C(=O)O)N(C(=O)[C@H](OC1CCCC1)c1ccccc1)C2 [Compound 38]
18.5 nM | COc1ccc2c(c1OCc1ccccc1)C[C@@H](C(=O)O)N(C(=O)[C@@H](OC(C)(C)C)c1ccccc1)C2 [Compound 39]
9.1 nM | COc1ccc2c(c1OCc1ccccc1)C[C@@H](C(=O)O)N(C(=O)[C@@H](NC1CCCC1)c1ccccc1)C2 [Compound 40]
216 nM | COc1ccc2c(c1OCc1ccccc1)C[C@@H](C(=O)O)N(C(=O)[C@H](NC1CCCC1)c1ccccc1)C2 [Compound 41]
161 nM | COc1ccc2c(c1OCc1ccccc1)C[C@@H](C(=O)O)N(C(=O)[C@@H](NC(=O)C1CCCC1)c1ccccc1)C2 [Compound 42]
> 3000 nM | COc1ccc2c(c1OCc1ccccc1)C[C@@H](C(=O)O)N(C(=O)[C@H](NC(=O)C1CCCC1)c1ccccc1)C2 [Compound 43]
8 nM | COc1ccc2c(c1OCc1ccccc1)C[C@@H](C(=O)O)N(C(=O)[C@@H](OC1CCCCC1)c1ccccc1)C2 [Compound 44]
487 nM | COc1ccc2c(c1OCc1ccccc1)C[C@@H](C(=O)O)N(C(=O)[C@H](c1ccccc1)N(C)C1CCCC1)C2 [Compound 45]
186 nM | COc1ccc2c(c1OCc1ccccc1)C[C@@H](C(=O)O)N(C(=O)C(Oc1ccccc1)c1ccccc1)C2 (stereo partly drawn) [Compound 46]
17 nM | COc1ccc2c(c1OCc1ccccc1)C[C@@H](C(=O)O)N(C(=O)C(OC1CCCC1)c1ccccc1)C2 (stereo partly drawn) [Compound 47]
21.4 nM | COc1ccc2c(c1OCc1ccccc1)C[C@@H](C(=O)O)N(C(=O)C(OC1CCC(O)CC1)c1ccccc1)C2 (stereo partly drawn) [Compound 48]
